Laboratory results: ChEMBL document CHEMBL5723379, “Affinity On-target Cellular Literature for EUbOPEN Chemogenomic Library” (2024)
pIC50, pKi: −log10 of the molar value. Values belong to the molecule of their own block, whether it stands above or below them.

Key:
Parameters in all cases: mode of action Inhibitor, recommended concentration 1 uM
[1] = biological target: T1, Monocarboxylate transporter 4 (Homo sapiens, UniProt O15427); test: (§1) Affinity On-target Cellular interaction: (Inhibition of lactate import in MDA-MB-231 cells) EUB0002761a SLC16A3; format: functional, cell-based
T1 sequence (O15427 whole entry): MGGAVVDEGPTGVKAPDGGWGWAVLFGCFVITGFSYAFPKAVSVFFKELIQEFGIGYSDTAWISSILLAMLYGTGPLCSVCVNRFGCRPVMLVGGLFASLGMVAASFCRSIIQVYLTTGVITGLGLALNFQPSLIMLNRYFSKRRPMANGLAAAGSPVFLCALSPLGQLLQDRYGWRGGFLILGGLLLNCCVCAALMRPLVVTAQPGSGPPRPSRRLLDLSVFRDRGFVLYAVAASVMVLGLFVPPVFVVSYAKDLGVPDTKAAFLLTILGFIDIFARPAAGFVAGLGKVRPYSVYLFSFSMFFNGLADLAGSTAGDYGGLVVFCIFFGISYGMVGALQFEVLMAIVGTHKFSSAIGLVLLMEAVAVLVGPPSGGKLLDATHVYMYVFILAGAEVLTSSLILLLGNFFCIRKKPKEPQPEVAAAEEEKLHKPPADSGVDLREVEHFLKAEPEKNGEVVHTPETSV

[2] = biological target: T1, Monocarboxylate transporter 4; test: as §1; format: functional, cell-based; remark: listed apart in the source
[3] = biological target: Na(+)/citrate cotransporter (Homo sapiens, UniProt Q86YT5); test: Affinity On-target Cellular interaction: (Radiolabelled uptake assay with […], HEK293 cells) EUB0002721a SLC13A5; format: functional, cell-based
Chain of Na(+)/citrate cotransporter (Q86YT5 whole entry): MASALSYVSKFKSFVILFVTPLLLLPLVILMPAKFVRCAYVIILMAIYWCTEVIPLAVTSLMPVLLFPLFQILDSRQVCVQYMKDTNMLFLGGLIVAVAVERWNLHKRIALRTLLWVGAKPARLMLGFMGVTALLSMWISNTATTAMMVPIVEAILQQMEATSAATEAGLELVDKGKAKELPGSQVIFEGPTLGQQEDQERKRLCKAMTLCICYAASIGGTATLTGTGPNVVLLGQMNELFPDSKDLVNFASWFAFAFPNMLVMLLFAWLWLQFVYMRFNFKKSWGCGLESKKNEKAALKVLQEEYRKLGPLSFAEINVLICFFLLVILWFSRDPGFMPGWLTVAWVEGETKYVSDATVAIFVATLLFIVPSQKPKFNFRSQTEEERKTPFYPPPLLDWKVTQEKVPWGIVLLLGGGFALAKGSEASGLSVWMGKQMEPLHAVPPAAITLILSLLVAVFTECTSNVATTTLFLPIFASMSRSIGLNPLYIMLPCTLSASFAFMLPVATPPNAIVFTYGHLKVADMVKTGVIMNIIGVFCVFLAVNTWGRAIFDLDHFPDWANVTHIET

[4] = biological target: Monocarboxylate transporter 8 (Homo sapiens, UniProt P36021); test: Affinity On-target Cellular interaction: (Inhibition of radiolabelled [125I]T3 uptake by target expressed in MDCK1 cells) EUB0002712a SLC16A2; format: functional, cell-based, MDCK-I
Chain of Monocarboxylate transporter 8 (P36021 whole entry): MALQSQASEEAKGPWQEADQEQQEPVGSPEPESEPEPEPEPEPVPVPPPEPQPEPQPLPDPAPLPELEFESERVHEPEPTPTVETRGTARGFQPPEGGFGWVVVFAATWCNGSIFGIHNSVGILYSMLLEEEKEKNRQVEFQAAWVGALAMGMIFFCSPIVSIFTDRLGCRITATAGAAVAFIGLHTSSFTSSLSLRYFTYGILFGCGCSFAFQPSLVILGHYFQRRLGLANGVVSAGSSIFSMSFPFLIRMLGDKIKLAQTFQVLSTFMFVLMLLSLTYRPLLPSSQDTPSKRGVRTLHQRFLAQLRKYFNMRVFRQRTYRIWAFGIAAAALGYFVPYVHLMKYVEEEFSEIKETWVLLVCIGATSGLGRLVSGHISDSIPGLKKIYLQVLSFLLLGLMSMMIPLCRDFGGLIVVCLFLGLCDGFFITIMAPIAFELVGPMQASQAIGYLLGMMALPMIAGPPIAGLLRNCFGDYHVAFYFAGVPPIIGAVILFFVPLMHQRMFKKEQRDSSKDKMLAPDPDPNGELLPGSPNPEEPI

Acid ceramidase [5] = biological target: T2, Acid ceramidase (Homo sapiens, UniProt Q13510); test: Affinity On-target Cellular interaction: (Inhibition of ASAH1 in A375 cell lysates overexpressing ASAH1) EUB0002723a ASAH1; format: functional, subcellular, A-375
T2 sequence (Q13510 22-142 limits assumed): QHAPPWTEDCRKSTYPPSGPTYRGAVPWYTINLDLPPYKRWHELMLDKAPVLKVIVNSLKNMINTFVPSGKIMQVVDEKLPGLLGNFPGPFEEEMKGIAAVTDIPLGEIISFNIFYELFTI
T2 sequence (Q13510 143-395 limits assumed): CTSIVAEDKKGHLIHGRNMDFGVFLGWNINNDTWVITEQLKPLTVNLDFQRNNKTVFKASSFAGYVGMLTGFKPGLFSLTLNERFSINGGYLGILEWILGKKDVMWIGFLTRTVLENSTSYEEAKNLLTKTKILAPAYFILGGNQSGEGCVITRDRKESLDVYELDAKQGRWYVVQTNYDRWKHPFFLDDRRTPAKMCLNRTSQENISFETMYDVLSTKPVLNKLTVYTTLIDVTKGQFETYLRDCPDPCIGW

[6] = biological target: Sodium/hydrogen exchanger 3 (Homo sapiens, UniProt P48764); test: Affinity On-target Cellular interaction: (Inhibition of Na+/H+ exchange, detection of fluorescence changes in acridine orange pH indicator, mouse fibroblast L cell line) EUB0002709aCl SLC9A3; format: functional, cell-based, LAP1
Chain of Sodium/hydrogen exchanger 3 (P48764 whole entry): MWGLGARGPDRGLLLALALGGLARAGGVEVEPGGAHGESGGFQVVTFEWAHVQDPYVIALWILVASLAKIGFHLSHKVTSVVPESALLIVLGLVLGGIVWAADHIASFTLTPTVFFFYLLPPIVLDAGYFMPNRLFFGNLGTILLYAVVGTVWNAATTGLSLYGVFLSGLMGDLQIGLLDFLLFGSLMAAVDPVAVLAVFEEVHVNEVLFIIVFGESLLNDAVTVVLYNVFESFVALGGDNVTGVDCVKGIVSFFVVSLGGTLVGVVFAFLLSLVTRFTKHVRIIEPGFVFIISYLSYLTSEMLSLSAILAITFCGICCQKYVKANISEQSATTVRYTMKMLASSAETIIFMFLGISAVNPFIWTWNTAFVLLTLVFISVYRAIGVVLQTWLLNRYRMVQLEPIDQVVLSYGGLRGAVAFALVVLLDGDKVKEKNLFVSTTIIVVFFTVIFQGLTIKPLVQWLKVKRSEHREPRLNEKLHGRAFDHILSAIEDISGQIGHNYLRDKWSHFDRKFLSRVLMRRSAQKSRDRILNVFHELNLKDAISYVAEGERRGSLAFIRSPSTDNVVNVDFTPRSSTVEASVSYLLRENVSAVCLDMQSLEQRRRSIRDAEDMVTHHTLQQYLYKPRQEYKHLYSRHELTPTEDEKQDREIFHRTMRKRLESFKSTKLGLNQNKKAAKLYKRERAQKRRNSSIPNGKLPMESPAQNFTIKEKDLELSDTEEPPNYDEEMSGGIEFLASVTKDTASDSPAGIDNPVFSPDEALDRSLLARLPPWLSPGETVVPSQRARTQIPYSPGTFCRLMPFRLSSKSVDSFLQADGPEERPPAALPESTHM

Zinc transporter SLC39A7 = Zinc transporter SLC39A7 (Homo sapiens, UniProt Q92504); test: Affinity On-target Cellular interaction: (HES-LUC reporter gene assay, U2OS cells) EUB0002669a SLC39A7; format: functional, cell-based
Chain of Zinc transporter SLC39A7 (Q92504 whole entry): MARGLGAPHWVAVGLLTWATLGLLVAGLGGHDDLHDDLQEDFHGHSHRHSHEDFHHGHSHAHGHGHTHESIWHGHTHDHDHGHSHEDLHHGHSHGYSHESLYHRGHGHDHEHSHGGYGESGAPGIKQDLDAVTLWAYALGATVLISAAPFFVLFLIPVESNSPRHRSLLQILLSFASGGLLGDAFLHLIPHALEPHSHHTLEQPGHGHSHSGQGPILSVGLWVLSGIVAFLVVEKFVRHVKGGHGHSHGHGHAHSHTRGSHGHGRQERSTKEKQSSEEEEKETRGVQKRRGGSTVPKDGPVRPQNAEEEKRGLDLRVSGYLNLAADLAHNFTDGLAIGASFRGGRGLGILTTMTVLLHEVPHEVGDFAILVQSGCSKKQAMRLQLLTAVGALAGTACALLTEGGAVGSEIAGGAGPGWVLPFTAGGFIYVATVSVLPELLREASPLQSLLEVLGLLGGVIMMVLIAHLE

Dipeptidyl peptidase 2 [7] = biological target: T3, Dipeptidyl peptidase 2 (Homo sapiens, UniProt Q9UHL4); test: (§2) Affinity On-target Cellular interaction: (inhibition of fluorogenic substrate cleavage, U937 cell) EUB0002750aCl DPP7; format: functional, cell-based, U-937
Dipeptidyl peptidase 2 [8] = biological target: T3, Dipeptidyl peptidase 2; test: as §2; format: functional, cell-based, U-937; remark: listed apart in the source
[9] = biological target: Sodium/hydrogen exchanger 1 (Homo sapiens, UniProt P19634); test: Affinity On-target Cellular interaction: ([Na+]uptake assay, PS-120 fibroblasts) EUB0002781aCl SLC9A1; format: functional, cell-based, PS120
Chain of Sodium/hydrogen exchanger 1 (P19634 whole entry): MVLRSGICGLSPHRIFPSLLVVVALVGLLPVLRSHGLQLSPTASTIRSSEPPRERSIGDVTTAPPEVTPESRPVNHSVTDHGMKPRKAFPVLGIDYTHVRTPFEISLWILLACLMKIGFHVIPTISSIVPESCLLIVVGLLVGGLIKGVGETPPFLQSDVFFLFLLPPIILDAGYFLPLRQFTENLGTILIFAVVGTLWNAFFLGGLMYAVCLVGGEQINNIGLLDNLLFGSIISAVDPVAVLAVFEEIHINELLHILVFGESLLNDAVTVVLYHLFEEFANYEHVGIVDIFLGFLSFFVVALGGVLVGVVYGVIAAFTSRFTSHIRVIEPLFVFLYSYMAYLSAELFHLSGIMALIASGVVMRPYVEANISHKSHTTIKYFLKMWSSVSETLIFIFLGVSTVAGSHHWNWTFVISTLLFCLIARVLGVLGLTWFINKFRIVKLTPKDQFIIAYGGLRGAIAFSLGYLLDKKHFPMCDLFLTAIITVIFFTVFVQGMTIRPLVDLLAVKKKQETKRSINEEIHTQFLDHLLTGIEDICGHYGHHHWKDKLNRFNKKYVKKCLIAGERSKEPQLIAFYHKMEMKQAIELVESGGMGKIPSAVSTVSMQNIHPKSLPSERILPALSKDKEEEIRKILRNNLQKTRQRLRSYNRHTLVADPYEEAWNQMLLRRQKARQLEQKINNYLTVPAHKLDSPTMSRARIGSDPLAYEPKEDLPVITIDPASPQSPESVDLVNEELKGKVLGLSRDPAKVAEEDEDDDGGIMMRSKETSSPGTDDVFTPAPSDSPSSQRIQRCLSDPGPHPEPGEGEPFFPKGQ

Acid ceramidase [10] = biological target: T2, Acid ceramidase; test: Affinity On-target Cellular interaction: (Inhibition of ASAH1 in A375 cell lysates overexpressing ASAH1) EUB0002722a ASAH1; format: functional, subcellular, A-375

SMILES: COc1cc([C@@H]2Oc3c(O)cc([C@H]4Oc5cc(O)cc(O)c5C(=O)[C@@H]4O)cc3[C@H]2CO)ccc1O [SILICRISTIN A]
pIC50 [4]: 6.96

SMILES: CCCCCCCCCCCCC/C=C/[C@@H](O)[C@H](CO)NC(=O)CCl
pKi (Acid ceramidase [5]): 7.40

SMILES: CC(=Cc1cc(C)ccc1C=C(C)C(=O)NC(=N)N)C(=O)N=C(N)N
pIC50 [6]: 7.70

SMILES: N[C@@H](CCNCc1ccc(Cl)cc1)C(=O)N1CCCCC1
pIC50 (Dipeptidyl peptidase 2 [7]): 9.68
pIC50 (Dipeptidyl peptidase 2 [8]): 9.85

SMILES: N=C(N)NC(=O)c1cnn(-c2cccc3ncccc23)c1C1CC1
pIC50 [9]: 7.85

SMILES: CCCCCCCCCCCCC/C=C/[C@@H](O)[C@H](CO)NC(=O)CBr
pKi (Acid ceramidase [10]): 7.53

The remaining lines, values ahead:

pIC50 [1]: 7.72
pIC50 [2]: 8.07
SMILES: CC(C)(OCc1cc(-c2cccc(OC3CC3)c2)n(-c2ccccc2Cl)n1)C(=O)O

pIC50 [3]: < 4.00
SMILES: O=C(NCc1ccc(Cl)cc1)C1CCN(S(=O)(=O)c2cc(Cl)cc(Cl)c2)CC1

pIC50 (Zinc transporter SLC39A7): 6.89
SMILES: O=C1Nc2ccccc2C2(CCN(CC(Cc3ccccc3)Nc3nc4ccc(F)cc4s3)CC2)N1 (stereo unspecified)
